Molecular target: human S1P1 (EDG-1) (Homo sapiens (Human), UniProt P21453)
Experiment: Confirmation test of antagonistic activity for human S1P1 receptor (35S-GTP binding, cell membranes)
Assay type: biochemical
Conditions: inhibition of 35S-GTP binding induced by S1P1 receptor selective agonist; HEK293 membranes expressing human S1P1
Protocol: Confirmation Test of Antagonistic Activity for Human S1P1 Receptor
Test compounds were tested by reduction of functional binding activity of ^35S-GTP (guanosine 5′-O-[gamma-thio] triphosphate, PerkinElmer) to G protein using cell membranes expressing human S1P1 (EDG-1). S1P1-pcDNA3.1/V5-His-Topo vector was prepared by inserting cDNA (NM_001400) encoding human S1P1 into the expression vector, pcDNA3.1/V5-His-Topo (registered trademark) (Invitrogen). Next, the above S1P1-pcDNA3.1 vector was transfected into HEK293 cells by Lipofectamine2000 (registered trademark) (Invitrogen). The transfected cells were incubated with D-MEM liquid medium each containing 10% FBS (Fetal bovine serum), 100 U/mL penicillin, 100 μg/mL streptomycin and 1 mg/mL Geneticin (registered trademark) (Invitrogen) in an incubator under the condition of 5% CO2 at 37° C. and Geneticin (registered mark)-resistant cell line stably expressing S1P1 were obtained. The obtained stably S1P1-expressing cells were incubated with D-MEM liquid medium each containing 10% FBS and 0.5 mg/mL Geneticin (registered trademark) in an incubator under the condition of 5% CO2 at 37° C. The cells grown to confluence were harvested by a buffer solution containing 50 mM Tris, 2 mM EDTA (ethylmediaminetetraacetic acid) and 125 mM sodium chloride, and centrifuged at 1880×g, 4° C. for 10 minutes. After a supernatant was removed, a cell pellet was resuspended by the same buffer solution. For making cell membranes fragile, this cell suspension was frozen at −80° C. and then thawed. The cells were centrifuged at 1880×g, 4° C. for 10 minutes, and a supernatant was removed. The cell pellet was suspended by adding the same buffer solution and a fracture solution (10 mM sodium bicarbonate and 5 mM EDTA, pH 7.5) at a ratio of 2:1. The cells were fractured by subjecting the cell suspension to ultrasonication, and a cell membrane fraction was isolated by centrifugation at 1880×g, 4° C. for 10 minutes and ultracentrifugation of the supernatant at 80000×g, 4° C. for 30 minutes. A pellet of the cell membrane fraction was suspended by the fracture solution containing protease inhibitor cocktail (Roche) and stored at −80° C. until use. A protein concentration of the cell membrane fraction was determined using BCA Protein Assay Kit (Pierce) in accordance with an attached protocol.
Inhibitory activity evaluation was performed by multi-screen (registered trademark) HTS 96-well plate (Millipore) using the cell membrane fraction stably expressing S1P1 obtained by the above operation. 25 μL of assay solution (50 mM Tris, 100 mM sodium chloride, 5 mM magnesium chloride, 1 mM EDTA, 1 mM DTT (dithiothreitol), 10 μM GDP (guanosine diphosphate) and 0.5% BSA (bovine serum albumin), pH 7.4), 25 μL of test compounds solution diluted by assay solution and 25 μL of the membrane fraction (0.2 μg protein/μL) were added to each well, and the mixture was gently shaken at room temperature: for 30 minutes. Then, 25 μL of ^35S-GTP, and 25 μL of 50 nM S1P1 receptor selective agonist (1-[4-(4-phenyl-5-trifluoromethylthiophen-2-ylmethoxy)benzyl]azetidine-3-carboxylic acid, “J. Med. Chem.”, 2004, vol. 47, pp. 6662-6665, compound 18) were added to each well, respectively, and it was reacted at room temperature for 60 minutes. After the reaction, a reaction solution of each well was suction-filtered. After suction filtration, ice-colded wash solution (50 mM Tris, 100 mM sodium chloride, […] and 1 mM EDTA, pH 7.4) was added to each well, and moreover filters were washed by suction filtration. This wash procedure was performed three times. A bottom of the plate containing the filters was dried at 60° C. After drying, 30 μL of MicroScinti-40 (PerkinElmer) was added to each well, and the radioactivity adsorbed on the filter was determined by TopCount NXT (registered trademark) (PerkinElmer) after shaking for 30 minutes at room temperature. […]

human S1P1 (EDG-1), sequence (P21453 whole entry): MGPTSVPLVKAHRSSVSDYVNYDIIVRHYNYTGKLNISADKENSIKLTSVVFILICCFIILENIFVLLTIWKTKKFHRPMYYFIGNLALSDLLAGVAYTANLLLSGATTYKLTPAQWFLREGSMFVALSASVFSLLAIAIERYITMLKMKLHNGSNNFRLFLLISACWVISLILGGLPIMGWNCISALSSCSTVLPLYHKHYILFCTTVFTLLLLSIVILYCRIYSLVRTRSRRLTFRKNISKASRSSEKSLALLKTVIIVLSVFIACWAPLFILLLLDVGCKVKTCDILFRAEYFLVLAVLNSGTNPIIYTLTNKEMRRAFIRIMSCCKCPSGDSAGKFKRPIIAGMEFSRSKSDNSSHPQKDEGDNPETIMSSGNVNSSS

| Structure (SMILES) | IC50 |
| --- | --- |
| CCN(c1ccc(Cl)c(C)c1)C1CCc2c(CN3CC(C(=O)O)C3)cccc21 (stereo not drawn) [Compound 6-3] | 2.8 nM |
| CCN(c1ccc(Cl)c(C(F)(F)F)c1)C(CO)c1ccc(C)c(CN2CC(C(=O)O)C2)c1 (stereo not drawn) [Compound 6-2] | 2.5 nM |
| Cc1cc(N(C)Cc2cccc(CN3CC(C(=O)O)C3)c2)ccc1Cl [Compound 1-2] | 7.6 nM |
| CCN(c1ccc(Cl)c(C)c1)C1CCc2c(CN3CC(C(=O)O)C3)cc(F)cc21 (stereo not drawn) [Compound 2-16] | 3.3 nM |
| CCN(c1cccc(Cl)c1)C(C)c1ccc(C)c(CN2CC(C(=O)O)C2)c1 (stereo not drawn) [Compound 2-49] | 0.9 nM |
| Cc1cc(NC(C)c2ccc(C)c(CN3CC(C(=O)O)C3)c2)ccc1Cl (stereo not drawn) [Comparative Example 1, 1-{5-[1-(4-Chloro-3-methylphenylamino)ethyl]-2-methylbenzyl}azetidine-3-carboxylic acid, reference compound] | 441 nM |
| CCN(Cc1ccc(C)c(CN2CC(C(=O)O)C2)c1C)c1ccc(Cl)c(C)c1 [Compound 2-11] | 1.1 nM |
| Cc1cc(N(C)C(C)c2ccc(C)c(CN3CC(C(=O)O)C3)c2)ccc1Cl (stereo not drawn) [Compound 2-13] | 21.5 nM |
| Cc1cc(CN2CC(C(=O)O)C2)c2c(c1)C(N(C)c1ccc(Cl)c(C)c1)CC2 (stereo not drawn) [Compound 2-9] | 22.2 nM |
| CCN(c1ccc(Cl)c(C)c1)C(C)c1ccc(F)c(CN2CC(C(=O)O)C2)c1 (stereo not drawn) [Compound 2-31, 1-(5-{1-[(4-Chloro-3-methylphenyl)(ethyl)amino]ethyl}-2-fluorobenzyl)-azetidine-3-carboxylic acid] | 5.7 nM |
| CCN(c1ccc(Cl)c(C(F)(F)F)c1)C(C)c1ccc(C(F)(F)F)c(CN2CC(C(=O)O)C2)c1 (stereo not drawn) [Compound 2-41, 1-(5-{1-[(4-Chloro-3-trifluoromethylphenyl)(ethyl)amino]ethyl}-2-trifluoromethylbenzyl)azetidine-3-carboxylic acid] | 1.9 nM |
| Cc1ccc2c(c1CN1CC(C(=O)O)C1)CCC2N(CCO)c1ccc(Cl)c(C(F)(F)F)c1 (stereo not drawn) [Compound 2-39] | 3.4 nM |
| Cc1cc(N(C)C2CCc3c(CN4CC(C(=O)O)C4)cccc32)ccc1Cl (stereo not drawn) [Compound 2-17] | 27.3 nM |
| CCN(Cc1cccc(CN2CC(C(=O)O)C2)c1C)c1ccc(Cl)c(C)c1 [Compound 2-4] | 3.9 nM |
| CCN(Cc1cccc(CN2CC(C(=O)O)C2)c1)c1ccc(Cl)c(C)c1 [Compound 3-1, 1-(3-{[(4-Chloro-3-methylphenyl)(ethyl)amino]methyl}benzyl)azetidine-3-carboxylic acid] | 8.9 nM |
| CCN(c1ccc(Cl)c(C)c1)C1CCc2c1ccc(OC)c2CN1CC(C(=O)O)C1 (stereo not drawn) [Compound 2-18] | 4.7 nM |
| Cc1cc(N(Cc2ccc(C)c(CN3CC(C(=O)O)C3)c2)C(C)C)ccc1Cl [Compound 2-3] | 2.8 nM |
| CCN(c1ccc(Cl)c(C)c1)C1CCc2c1ccc(C)c2CN1CC(C(=O)O)C1 (stereo not drawn) [Compound 2-21, 1-{1-[(4-Chloro-3-methylphenyl)(ethyl)amino]-5-methylindan-4-ylmethyl}-azetidine-3-carboxylic acid] | 1.9 nM |
| CCC(c1ccc(C)c(CN2CC(C(=O)O)C2)c1)N(CC)c1ccc(Cl)c(C(F)(F)F)c1 (stereo not drawn) [Compound 2-45, 1-(5-{1-[(4-Chloro-3-trifluoromethylphenyl)(ethyl)amino]propyl}-2-methylbenzyl)azetidine-3-carboxylic acid] | 0.8 nM |
| CCC(c1cccc(CN2CC(C(=O)O)C2)c1)N(CC)c1ccc(Cl)c(C)c1 (stereo not drawn) [Compound 2-12] | 6.8 nM |
| C=Cc1ccc(C(C)N(CC)c2ccc(Cl)c(C(F)(F)F)c2)cc1CN1CC(C(=O)O)C1 (stereo not drawn) [Compound 4-1, 1-(5-{1-[(4-Chloro-3-trifluoromethylphenyl)(ethyl)amino]ethyl}-2-vinylbenzyl)-azetidine-3-carboxylic acid] | 1.2 nM |
| Cc1cc(N(Cc2cccc(CN3CC(C(=O)O)C3)c2)C(C)C)ccc1Cl [Compound 3-4] | 15.3 nM |
| CCN(c1ccc(Cl)c(C)c1)C1CCc2c1ccc(F)c2CN1CC(C(=O)O)C1 (stereo not drawn) [Compound 2-15, 1-{1-[(4-Chloro-3-methylphenyl)(ethyl)amino]-5-fluoroindan-4-ylmethyl}-azetidine-3-carboxylic acid] | 2.5 nM |
| CCN(Cc1ccc(C)c(CN2CC(C(=O)O)C2)c1)c1ccc(Cl)c(C)c1 [Compound 2-1, 1-(5-{[(4-Chloro-3-methylphenyl)(ethyl)amino]methyl}-2-methylbenzyl)azetidine-3-carboxylic acid] | 5.3 nM |
| CCN(c1ccc(Cl)c(C)c1)C1CCCc2c(CN3CC(C(=O)O)C3)cccc21 (stereo not drawn) [Compound 3-7] | 12.8 nM |
| CCN(c1ccc(Cl)c(C)c1)C(C)c1ccc(Cl)c(CN2CC(C(=O)O)C2)c1 (stereo not drawn) [Compound 2-32, 1-(2-Chloro-5-{1-[(4-chloro-3-methylphenyl)(ethyl)amino]ethyl}benzyl)-azetidine-3-carboxylic acid] | 1.1 nM |
| CCC(c1ccc(C)c(CN2CC(C(=O)O)C2)c1)N(CC)c1ccc(Cl)c(C)c1 (stereo not drawn) [Compound 2-46, 1-(5-{1-[(4-Chloro-3-methylphenyl)(ethyl)amino]propyl}-2-methylbenzyl)-azetidine-3-carboxylic acid] | 1.9 nM |

Continued by falling IC50, values first:

| IC50 | Structure (SMILES) |
| --- | --- |
| 8.6 nM | Cc1ccc(C(C)N(CCO)c2ccc(Cl)c(C(F)(F)F)c2)cc1CN1CC(C(=O)O)C1 (stereo not drawn) [Compound 2-37] |
| 6.9 nM | CCN(c1ccc(Cl)c(C)c1)C(C)c1ccc(OC)c(CN2CC(C(=O)O)C2)c1 (stereo not drawn) [Compound 2-30] |
| 6.7 nM | Cc1cc(N(C)Cc2ccc(C)c(CN3CC(C(=O)O)C3)c2)ccc1Cl [Compound 2-2] |
| 4.4 nM | CCN(c1ccc(Cl)c(C(F)(F)F)c1)C(C)c1ccc(CO)c(CN2CC(C(=O)O)C2)c1 (stereo not drawn) [Compound 5-1, 1-(5-{1-[(4-Chloro-3-trifluoromethylphenyl)(ethyl)amino]ethyl}-2-hydroxymethyl-benzyl)azetidine-3-carboxylic acid] |
| 3.7 nM | CCN(c1ccc(Cl)c(C(F)(F)F)c1)C1CCc2c(CN3CC(C(=O)O)C3)cccc21 (stereo not drawn) [Compound 2-24] |
| 3.5 nM | CCN(c1ccc(Cl)c(C)c1)C(C)c1ccc(C(F)(F)F)c(CN2CC(C(=O)O)C2)c1 (stereo not drawn) [Compound 2-43, 1-(5-{1-[(4-Chloro-3-methylphenyl)(ethyl)amino]ethyl}-2-trifluoromethylbenzyl)azetidine-3-carboxylic acid] |
| 3.1 nM | CCN(c1cc(C(F)(F)F)cc(C(F)(F)F)c1)C(C)c1ccc(C)c(CN2CC(C(=O)O)C2)c1 (stereo not drawn) [Compound 4-2] |
| 2.5 nM | Cc1ccc2c(c1CN1CC(C(=O)O)C1)CCC2N(C)c1ccc(Cl)c(C(F)(F)F)c1 (stereo not drawn) [Compound 2-10, 1-{1-[(4-Chloro-3-trifluoromethylphenyl)(methyl)amino]-5-methylindan-4-ylmethyl}azetidine-3-carboxylic acid] |
| 1.8 nM | CCN(c1ccc(Cl)cc1)C(C)c1ccc(C)c(CN2CC(C(=O)O)C2)c1 (stereo not drawn) [Compound 2-47] |
| 1.7 nM | CCCN(c1ccc(Cl)c(C)c1)C(C)c1ccc(C)c(CN2CC(C(=O)O)C2)c1 (stereo not drawn) [Compound 2-14, 1-(5-{1-[(4-Chloro-3-methylphenyl)(propyl)amino]ethyl}-2-methylbenzyl)-azetidine-3-carboxylic acid] |
| 1.2 nM | CCN(c1ccc(Cl)c(C)c1)C(C)c1cc(Cl)cc(CN2CC(C(=O)O)C2)c1 (stereo not drawn) [Compound 2-29] |
| 1.2 nM | CCN(c1ccc(Cl)c(C)c1)[C@H](C)c1cccc(CN2CC(C(=O)O)C2)c1 [Compound 6-5] |

Source: patent US9718771B2, “Aniline derivative, pharmaceutical composition containing same, and use thereof” (Kissei Pharmaceutical Co., Ltd., priority 2014, dated 2017)
